Laboratory results: patent US6087346A, “Sigma receptor ligands and the use thereof” (Cambridge Neuroscience, Inc., priority 1996, dated 2000)
Where a name gives a salt, the structure may show the parent alone. Read-outs that look alike come from different tables or passages of the source.

What was measured:
sigma-2 receptor = biological target: T1, sigma-2 receptor (Cavia porcellus, UniProt H0V073); assay: Sigma-2 binding assay ([^3 H]DTG in the presence of (+)pentazocine); parameters: species or system guinea pig
T1 construct: of guinea pig brain membranes in a total volume of 0.5 ml; from tissue; host or cells: guinea pig brain membranes
T1 sequence (H0V073 1-176): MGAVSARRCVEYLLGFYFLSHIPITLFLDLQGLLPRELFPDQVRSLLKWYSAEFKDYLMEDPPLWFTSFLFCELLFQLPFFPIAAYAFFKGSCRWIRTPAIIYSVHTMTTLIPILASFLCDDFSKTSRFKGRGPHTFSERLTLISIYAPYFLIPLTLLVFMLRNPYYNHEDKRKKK
From the text: Protocols of the Sigma-1 and Sigma-2 binding assays employed are as follows:

sigma-1 receptor [1] = biological target: T2, sigma-1 receptor (Cavia porcellus, UniProt Q60492); settings: pH 8
Protocol: (§1) Non-specific binding was determined in the presence of 10 μM haloperiodol. For the standard equilibrium assay the mixtures were incubated for 4-5 hours at 37° C., quenched with 4 ml of ice cold incubation buffer and rapidly filtered over Whatman GF/B glass fiber filters, followed by three 4 ml rinses with additional ice cole incubation buffer.

[2] = biological target: sigma receptor (sigma-1 and sigma-2 sites); assay: Sigma receptor binding assay ([^3 H]DTG, guinea pig brain membrane homogenates); settings: for IC50: Example 3 table, tested by the [^3 H]DTG assay of Example 2; for Ki: Table II, [^3 H]DTG 1.4 nM, guinea pig brain membranes, pH 7.4, 90 minutes room temperature, IC50 values indicated as Ki, read-out: Ki nM (± SEM)
Protocol: Briefly, frozen whole guinea-pig brains (Biotrol, Indianapolis, Ind.) were homogenized in 10 volumes (w/v) of ice-cold 320 mM sucrose using a Brinkman® polytron. The homogenate was centrifuged at 1,000× g for 20 minutes at 4° C. The supernatant was centrifuged at 20,000× g for 20 minutes at 4° C. The resulting pellet was resuspended in 10 initial volumes of 50 mM Tris/HCI buffer at pH 7.4 and centrifuged at 20,000× g for 20 minutes at 4° C. The resulting pellet was resuspended in 5 initial volumes ice-cold 50 mM Tris/HCl (pH 7.4), and the final volume was adjusted to yield a protein concentration of 3 mg/mL.
The protein concentration in the 1-ml final incubation volume was 800 μg/ml, corresponding to 32 mg of brain tissue (original wet weight) and to a tissue concentration within the linear range for specific binding.
The volume of the assays may be changed, specifically halved, so long as the concentrations of the constituents remain the same. […] Incubations were terminated after 90 minutes at room temperature by addition of 4 ml of ice-cold 50 mM Tris/HCI (pH 7.4) and rapid filtration of the membrane suspension through Whatman® GF/B or Schieicher & Schuell #32 glass-fiber filters under vacuum, using a 48-well cell harvester (Brandel). The filters were washed 2 times with 4 mL of 50 mM Tris/HCI (pH 7.4). Each filter was suspended in 10 ml Cytoscint (ICI), and radioactivity was measured by liquid scintillation spectrometry at a counting efficiency of approximately 50%. IC50 values (indicated as Ki in Tables II below) were determined by non-linear regression analysis.

sigma-1 receptor [3] = biological target: T2, sigma-1 receptor; assay: biochemical
Protocol: as §1

sigma-1 site = sigma-1 site (Cavia porcellus, UniProt Q60492); settings: Hellewell and Bowen (1990); cited from earlier work
[4] = system: NMDA-induced toxicity and seizures; settings: in vivo; Pontecorvo et al.; cited from earlier work
PCP receptors = settings: cited from earlier work
opiate receptors = settings: cited from earlier work
gerbils = settings: in vivo, Rao et al.; cited from earlier work
[5] = system: NMDA-type of glutamate receptors; settings: Rao et al.; cited from earlier work
sigma sites = settings: in words; cited from earlier work
DA sites = settings: cited from earlier work

T2 sequence (Q60492 whole entry): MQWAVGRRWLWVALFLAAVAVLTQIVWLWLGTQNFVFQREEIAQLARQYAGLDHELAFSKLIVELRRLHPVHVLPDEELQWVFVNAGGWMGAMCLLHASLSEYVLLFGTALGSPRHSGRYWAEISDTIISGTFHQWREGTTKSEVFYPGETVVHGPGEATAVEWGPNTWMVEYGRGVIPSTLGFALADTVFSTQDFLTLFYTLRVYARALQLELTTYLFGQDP
sigma-1 site, sequence (Q60492 whole entry): as above

Molecule `CN(CCCCCc1ccccc1)CCc1ccccc1` has an IC50 (sigma-2 receptor; read-out: Sigma 2 IC50) of 4.98 nM, a Ki (sigma-1 receptor [1]) of 0.25 nM and an IC50 [2] of 1.3 nM.

Molecule `CNC(CCCCCc1ccccc1)CCCCCc1ccccc1` has an IC50 [2] of 2.97 nM.

With `c1ccc(CCCCCNCCc2ccccc2)cc1` the IC50 [2] was 3.66 nM.

For `c1ccc(CCCCCN2CCCC2)cc1`, the IC50 (sigma-2 receptor; read-out: Sigma 2 IC50) was 69.7 nM, the Ki (sigma-1 receptor [3]) was 0.76 nM and the IC50 [2] was 4.95 nM.

For `CN(CCCCCc1cccc(C(F)(F)F)c1)CCc1ccccc1`, the IC50 (sigma-2 receptor; read-out: Sigma 2 IC50) was 3.57 nM and the Ki (sigma-1 receptor [3]) was 0.59 nM.

Molecule `CN(CCCCCc1ccccc1)CCc1cccc(C(F)(F)F)c1` has an IC50 (sigma-2 receptor; read-out: Sigma 2 IC50) of 14.4 nM and a Ki (sigma-1 receptor [3]) of 1.74 nM.

With `CN(CCCCC(=O)c1cccc(C(F)(F)F)c1)CCc1ccccc1` the IC50 (sigma-2 receptor; read-out: Sigma 2 IC50) was 1.27 nM and the Ki (sigma-1 receptor [3]) was 0.71 nM.

Molecule `CN(CCCCC(O)c1cccc(C(F)(F)F)c1)CCc1ccccc1` (centres unmarked) has an IC50 (sigma-2 receptor; read-out: Sigma 2 IC50) of 3.02 nM and a Ki (sigma-1 receptor [3]) of 0.95 nM.

`CN1CCN(CCCCCc2ccccc2)CC1` gave an IC50 (sigma-2 receptor; read-out: Sigma 2 IC50) of 78.9 nM and a Ki (sigma-1 receptor [3]) of 1.44 nM.

Molecule `CN1CCC(CCCCCc2ccccc2)CC1` has an IC50 (sigma-2 receptor; read-out: Sigma 2 IC50) of 97.3 nM and a Ki (sigma-1 receptor [3]) of 0.6 nM.

Molecule `O=[N+]([O-])c1ccc(CCCCCN2CCCCC2)cc1` has an IC50 (sigma-2 receptor; read-out: Sigma 2 IC50) of 9.91 nM and a Ki (sigma-1 receptor [3]) of 0.16 nM.

For `c1ccc2c(c1)C1CC2C(N2CCCCC2)C1` (centres unmarked), the IC50 (sigma-2 receptor; read-out: Sigma 2 IC50, about 2 nM [^3 H]DTG with 200 nM (+)pentazocine, guinea pig brain membranes, pH 7.4, 30 minutes room temperature) was 5.29 nM and the Ki (sigma-1 receptor [1]) was 0.13 nM.

For `c1ccc(CCCCCN2CCCC(Cc3ccccc3)C2)cc1` (centres unmarked), the IC50 (sigma-2 receptor; read-out: Sigma 2 IC50) was 4.17 nM and the Ki (sigma-1 receptor [3]) was 0.07 nM.

Work on `c1ccc(CCCCCN2CCCCC2c2ccccc2)cc1` (centres unmarked) yielded an IC50 (sigma-2 receptor; read-out: Sigma 2 IC50) of 4.7 nM and a Ki (sigma-1 receptor [3]) of 0.16 nM.

Molecule `CN(CCCC=C(c1ccccc1)c1ccccc1)CCc1ccccc1` has an IC50 (sigma-2 receptor; read-out: Sigma 2 IC50) of 40.8 nM and a Ki (sigma-1 receptor [3]) of 0.9 nM.

In the case of `CN(CCCCC(c1ccccc1)c1ccccc1)CCc1ccccc1`, the IC50 (sigma-2 receptor; read-out: Sigma 2 IC50) is reported as 31.5 nM.

`C(CCCNCCc1ccccc1)=C(c1ccccc1)c1ccccc1` showed an IC50 (sigma-2 receptor; read-out: Sigma 2 IC50) of 142 nM.

In the case of `CCN(CC)CCCCC(c1ccccc1)c1ccccc1`, the IC50 (sigma-2 receptor; read-out: Sigma 2 IC50) is reported as 51.2 nM and the Ki (sigma-1 receptor [3]) is reported as 1.42 nM.

With `CCN(CC)CCCCCc1ccccc1` the IC50 (sigma-2 receptor; read-out: Sigma 2 IC50) was 88.5 nM and the Ki (sigma-1 receptor [3]) was 6.01 nM.

`c1ccc(Cc2cccc(CN3CCCCC3)c2)cc1` showed an IC50 (sigma-2 receptor; read-out: Sigma 2 IC50) of 98.2 nM and a Ki (sigma-1 receptor [3]) of 5.44 nM.

For `c1ccc(CCCCCN2CCCCC2Cc2ccccc2)cc1` (centres unmarked), the IC50 (sigma-2 receptor; read-out: Sigma 2 IC50) was 10.4 nM and the Ki (sigma-1 receptor [3]) was 0.36 nM.

`CC(Cc1ccccc1)NCCCCCc1ccccc1` (centres unmarked) gave an IC50 (sigma-2 receptor) of 10.9 nM and a Ki (sigma-1 receptor [3]) of 0.54 nM.

With `CC(Cc1ccccc1)NCCCCc1ccccc1` (centres unmarked) the IC50 (sigma-2 receptor) was 47.5 nM and the Ki (sigma-1 receptor [3]) was 7.38 nM.

`c1ccc(CNCCCN2CCN(c3ccccc3)CC2)cc1` gave an IC50 (sigma-2 receptor; read-out: Sigma 2 IC50) of 101 nM and a Ki (sigma-1 receptor [3]) of 1.96 nM.

For `CC1CCN(CCCCCc2ccccc2)CC1`, the IC50 (sigma-2 receptor; read-out: Sigma 2 IC50) was 7.1 nM and the Ki (sigma-1 receptor [3]) was 0.08 nM.

In the case of `CN1CCC(=CCCCCc2ccccc2)CC1`, the IC50 (sigma-2 receptor; read-out: Sigma 2 IC50) is reported as 258 nM and the Ki (sigma-1 receptor [3]) is reported as 9.87 nM.

In the case of `c1ccc(CCNCCCCC(c2ccccc2)c2ccccc2)cc1`, the IC50 (sigma-2 receptor; read-out: Sigma 2 IC50) is reported as 100 nM and the Ki (sigma-1 receptor [3]) is reported as 0.68 nM.

With `CC1CCN(CCCC=C(c2ccccc2)c2ccccc2)CC1` the IC50 (sigma-2 receptor; read-out: Sigma 2 IC50) was 25 nM.

`CC1CCN(CCCCC(c2ccccc2)c2ccccc2)CC1` showed an IC50 (sigma-2 receptor; about 2 nM [^3 H]DTG with 200 nM (+)pentazocine, guinea pig brain membranes, pH 7.4, 30 minutes room temperature, read-out: Sigma 2 IC50) of 16.7 nM and a Ki (sigma-1 receptor [1]) of 0.1 nM.

For `CC(C)=CCN1CCC2(C)c3cc(O)ccc3CC1C2C` (single isomer, unassigned; (+)) [(+)pentazocine], the “affinity for the sigma-1 site compared to the sigma-2 site” value (sigma-1 site) is listed as “nearly two orders of magnitude higher affinity for the sigma-1 site compared to the sigma-2 site”.

In the case of `OC(CCCN1CCN(c2ncc(F)cn2)CC1)c1ccc(F)cc1` (centres unmarked) [BMY-14802], the “protective effects against NMDA-induced toxicity and seizures” value [4] is listed as “in vivo protective effects against NMDA-induced toxicity and seizures”.

In the case of `O=C(CCCCN1CCC(c2ccc(Cl)cc2)CC1)c1ccc(Cl)c(Cl)c1` [Compound 1, 1,2,4-Dichlorophenyl-5-[4-(4-chlorophenyl)-1-piperidino]pentanone Hydrochloride], the Ki [2] is reported as 1.8 nM.

In the case of `COc1ccc(C(=O)CCCCN2CCC(c3ccccc3)CC2)cc1` [Compound 2, 1-(4-Methoxyphenyl)-5-(4-phenyl-l-piperidino)pentanone Hydrochloride], the Ki [2] is reported as 0.8 nM.

`Clc1ccc(CCCCCN2CCCCC2)cc1` [Compound 3, N-[5-(4-Chlorophenyl)pentyl]piperidine Hydrochloride] showed a Ki [2] of 2 nM.

`O=C(CCCCN1CCC(O)(c2ccc(Cl)cc2)CC1)c1ccc(F)cc1` [Compound 4] gave a Ki [2] of 2.6 nM.

With `O=C(CCCCN1CCC(c2ccccc2)CC1)c1ccc(F)cc1` [Compound 5] the Ki [2] was 0.8 nM.

Molecule `O=C(CCCCN1CCC(c2ccccc2)CC1)c1ccccc1` [Compound 6] has a Ki [2] of 0.9 nM.

`O=C(CCCCN1CCC(c2ccccc2)CC1)c1ccc(Cl)cc1` [Compound 7] showed a Ki [2] of 0.5 nM.

Molecule `O=C(CCCCN1CCC(c2ccccc2)CC1)c1cccc(Cl)c1` [Compound 8] has a Ki [2] of 1.1 nM.

Work on `COc1cccc(C(=O)CCCCN2CCC(c3ccccc3)CC2)c1` [Compound 9] yielded a Ki [2] of 1 nM.

Work on `O=C(CCCCN1CCC(c2ccc(Cl)cc2)CC1)c1ccc(Cl)cc1` [Compound 10] yielded a Ki [2] of 1.8 nM.

`O=C(CCCCN1CC=C(c2ccc(Cl)cc2)CC1)c1ccc(Cl)cc1` [Compound 12] gave a Ki [2] of 4.3 nM.

With `O=C(CCCCN1CC=C(c2ccc(F)cc2)CC1)c1ccc(Cl)cc1` [Compound 13] the Ki [2] was 2 nM.

With `c1ccc(CCCCCN2CCC(c3ccccc3)CC2)cc1` [Compound 14] the Ki [2] was 0.9 nM.

Work on `Clc1ccc(CCCCCN2CCC(c3ccccc3)CC2)cc1` [Compound 15] yielded a Ki [2] of 1.8 nM.

Molecule `COc1ccc(CCCCCN2CCC(c3ccccc3)CC2)cc1` [Compound 16] has a Ki [2] of 1.2 nM.

For `O=C(CCCCN1CCCCC1)c1ccccc1` [Compound 17], the Ki [2] was 25.2 nM.

Work on `O=C(CCCCN1CCCCC1)c1ccc(F)cc1` [Compound 18] yielded a Ki [2] of 6.7 nM.

Work on `O=C(CCCCN1CCCCC1)c1ccc(Cl)cc1` [Compound 19] yielded a Ki [2] of 1.2 nM.

For `O=C(CCCCN1CCCCC1)c1cccc(Cl)c1` [Compound 20], the Ki [2] was 3.8 nM.

In the case of `COc1ccc(C(=O)CCCCN2CCCCC2)cc1` [Compound 21], the Ki [2] is reported as 9.9 nM.

In the case of `COc1cccc(C(=O)CCCCN2CCCCC2)c1` [Compound 22], the Ki [2] is reported as 20.7 nM.

Molecule `c1ccc(CCCCCN2CCCCC2)cc1` [Compound 23] has a Ki [2] of 1.9 nM.

With `COc1ccc(CCCCCN2CCCCC2)cc1` [Compound 24] the Ki [2] was 4.7 nM.

Work on `COc1cccc(CCCCCN2CCCCC2)c1` [Compound 25] yielded a Ki [2] of 10.7 nM.

For `C=CCN1CCC2(C)c3cc(O)ccc3CC1C2C` (centres unmarked) [NANM, N-allyl normetazocine], the “affinity at PCP receptors” value (PCP receptors) is listed as “significant affinity” and the “affinity at typical opiate receptors” value (opiate receptors) is listed as “low affinity”.

In the case of `CCN(CC)CCOC(=O)C1(c2ccccc2)CCCC1` [caramiphen], the “protective effects against NMDA-induced toxicity and seizures” value [4] is listed as “in vivo protective effects against NMDA-induced toxicity and seizures”.

`c1cc2c(cc1CCCCCN1CCCCC1)OCO2` [drawing 25] gave an IC50 [2] of 2.25 nM.

Work on `c1cc2c(cc1CCCCCN1CCCCC1)OCO2` [drawing 38] yielded an IC50 (sigma-2 receptor; read-out: Sigma 2 IC50) of 63.4 nM and a Ki (sigma-1 receptor [3]) of 0.32 nM.

In the case of `OCCN1CCN(CCCN2c3ccccc3C=Cc3ccccc32)CC1` [opipramol], the protection against ischemia (gerbils) is given as “protect against ischemia in gerbils”, the “biochemical effects on NMDA-type glutamate receptors” value [5] is given as “biochemical effects consistent with modulation of the NMDA-type of glutamate receptors” and the “affinity for sigma sites” value (sigma sites) is given as “potent sigma receptor ligand”.

For `O=C(CCCN1CCC2(CC1)C(=O)NCN2c1ccccc1)c1ccc(F)cc1` [spiperone], the “affinity for DA sites” value (DA sites) is given as “high affinity for DA sites” and the “affinity for sigma sites” value (sigma sites) is given as “essentially no affinity for sigma sites”.
